Tests used:
Format in all cases: cell-based
[1] = biological target: T1, human cloned CHRM2 receptor (M2_CHO cells) (Homo sapiens, UniProt P08172); assay: CHRM2 Ca++ Flux Assay (agonist mode, FDSS 7000EX); settings: for M2 FDSS PA / Emax: Percent Activity measured to EC100 of Carbachol; for Emax: read-out: M2 FDSS PA
T1 construct: expressed in transfected cells; host or cells: CHO-K1
T1 sequence (P08172 1-466): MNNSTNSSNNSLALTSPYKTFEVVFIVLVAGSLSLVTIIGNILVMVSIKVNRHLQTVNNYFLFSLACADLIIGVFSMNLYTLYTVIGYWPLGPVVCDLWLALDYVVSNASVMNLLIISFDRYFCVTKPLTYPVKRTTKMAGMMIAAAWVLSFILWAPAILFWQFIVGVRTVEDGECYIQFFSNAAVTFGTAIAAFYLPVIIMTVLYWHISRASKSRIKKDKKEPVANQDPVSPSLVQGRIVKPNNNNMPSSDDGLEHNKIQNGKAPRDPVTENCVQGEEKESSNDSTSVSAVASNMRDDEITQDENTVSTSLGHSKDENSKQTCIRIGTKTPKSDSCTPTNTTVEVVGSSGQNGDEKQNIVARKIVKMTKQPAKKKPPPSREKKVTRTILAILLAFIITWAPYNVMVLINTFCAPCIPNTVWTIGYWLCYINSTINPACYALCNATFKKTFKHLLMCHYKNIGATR
Experimental: (§1) The above examples were characterized by measuring the intracellular mobilization of Ca++ ions caused by signaling events mediated by the receptor. The Intra-cellular Calcium flux levels were captured by the highly sensitive Ca++ indicator, Calcium Assay Kit (BD Biosciences, Catalog Number 640178). The fluorescent activity from all receptors were monitored by the fluorescent imager, FDSS 7000EX (Hamamatsu) over a span of 3 minutes.
(§2) CHO-K1 cells stably expressing the human cloned CHRM2 receptor (M2_CHO cells) were grown and maintained in a monolayer culture with F12/HAM (Life Technologies) supplemented with 10% Fetal Bovine Serum, 1× Pen-Strep, and 0.4 mg/mL Geneticin in a humidified atmosphere (5% CO2) at 37° C. The cultures were grown to 80-9 0% confluency in T150 flasks (Corning) and washed with 1×DPBS and lifted with 0.05% Trypsin (Life Technologies). The cells were then spun (1K rpm, 3 minutes) and frozen using Recovery Cell Culture Freezing Media (Gibco Technologies). Cells were stored in liquid nitrogen and thawed a day before the assay.
Prior to the day of the assay, stable M2 CHO cells were thawed and plated on Greiner 384 well TC treated plate at a density of 12K cells/well and kept overnight in a humidified atmosphere (5% CO2) at 37° C. The following day, the cells were loaded with Ca^++ dye (BD Biosciences) using Loading Buffer (HBSS +Ca/+Mg, 20 mM HEPES, 2.5 mM Probenecid) and placed back in cell incubator for a minimum of 1 hour and maximum of 2 hours. After incubation, the dye was replaced with Assay Buffer (HBSS −Ca/−Mg, 20 mM HEPES, 2.5 mM Probenecid) supplemented with 20 μM ATP (Sigma Aldrich) and kept at room temperature for 60 minutes prior before running on cell imager. The FDSS 7000EX (Hamamatsu) was used to acquire Ca^++ traces from cells in response to compound treatment and the data was used to generate dose response curves in agonist mode. All compounds were serially diluted in DMSO then prepared in Assay Buffer for Ca^++ flux studies. The dose response curves were generated from the average of triplicate wells obtained from each data point and used a non-linear regression of four parameter dose response algorithm. The Percent Activity (PA) was measured to EC100 of Carbachol.

[2] = biological target: T2, human cloned CHRM3 receptor (M3_CHO cells) (Homo sapiens, UniProt P20309); assay: CHRM3 Ca++ Flux Assay (agonist mode, FDSS 7000EX); settings: for M3 FDSS PA / Emax: Percent Activity measured to EC100 of Carbachol; for EC50: agonist mode, geometric mean if tested more than once, read-out: M3 FDSS EC50; for Emax: read-out: M3 FDSS PA
T2 construct: expressed in transfected cells; host or cells: CHO-K1
Experimental: as §1
as §2, with “CHRM3” for “CHRM2”, “(M3_CHO” for “(M2_CHO”, “assay. A similar procedure was used for cells stably expressing the human cloned CHRM5 receptor (M5_CHO).” for “assay.”
(§3) Prior to the day of the assay, stable M3_CHO or M5_CHO cells were thawed and plated on Greiner 384 well black TC treated plates at 12K cells/well in F12/DMEM supplemented with 10% FBS (Hyclone) and kept overnight in a humidified atmosphere (5% CO2) at 37° C. The next day, cells were loaded with Ca^++ dye (BD Biosciences) using Loading Buffer (HBSS +Ca/+Mg, 20 mM HEPES, 2.5 mM Probenecid) and placed back in cell incubator for a minimum of 1 hour. After incubation, the dye was replaced with Assay Buffer (HBSS −Ca/−Mg, 20 mM HEPES, 2.5 mM Probenecid) and kept at room temperature in the dark before running on cell imager. The FDSS 7000EX (Hamamatsu) was used to acquire Ca^++ traces from cells treated with 11 point dose response of compounds in triplicate in order to generate dose response curves in agonist mode. All compounds were serially diluted in DMSO then prepared in Assay Buffer for Ca^++ flux studies. The dose response curves were generated from the average of triplicate wells obtained from each data point and used a non-linear regression of four parameter dose response algorithm. The Percent Activity (PA) was measured to EC100 of Carbachol.

[3] = biological target: T3, human cloned CHRM5 receptor (M5_CHO) (Homo sapiens, UniProt P08912); assay: CHRM5 Ca++ Flux Assay (agonist mode, FDSS 7000EX); settings: for M5 FDSS PA / Emax: Percent Activity measured to EC100 of Carbachol; for EC50: agonist mode, geometric mean if tested more than once, read-out: M5 FDSS EC50; for Emax: read-out: M5 FDSS PA
T3 construct: expressed in transfected cells; host or cells: CHO (M5_CHO)
T3 sequence (P08912 1-532): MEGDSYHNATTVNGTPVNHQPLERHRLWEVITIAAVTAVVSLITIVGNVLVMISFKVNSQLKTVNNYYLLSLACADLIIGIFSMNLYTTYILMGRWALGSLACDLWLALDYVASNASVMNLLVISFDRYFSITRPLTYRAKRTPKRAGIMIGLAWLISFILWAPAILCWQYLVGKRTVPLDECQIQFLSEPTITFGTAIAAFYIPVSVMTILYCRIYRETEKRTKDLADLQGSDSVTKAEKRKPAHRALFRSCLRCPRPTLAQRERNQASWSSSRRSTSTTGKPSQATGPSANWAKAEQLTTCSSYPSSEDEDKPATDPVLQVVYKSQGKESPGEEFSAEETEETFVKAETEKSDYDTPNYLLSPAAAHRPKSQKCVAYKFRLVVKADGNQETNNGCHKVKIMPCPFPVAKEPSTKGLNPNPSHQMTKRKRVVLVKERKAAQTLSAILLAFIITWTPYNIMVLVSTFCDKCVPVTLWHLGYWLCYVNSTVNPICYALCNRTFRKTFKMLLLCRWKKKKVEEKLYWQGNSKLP
Experimental: as §1
as §2, with “CHRM3” for “CHRM2”, “(M3_CHO” for “(M2_CHO”, “assay. A similar procedure was used for cells stably expressing the human cloned CHRM5 receptor (M5_CHO).” for “assay.”
as §3

T2 sequence (P20309 whole entry): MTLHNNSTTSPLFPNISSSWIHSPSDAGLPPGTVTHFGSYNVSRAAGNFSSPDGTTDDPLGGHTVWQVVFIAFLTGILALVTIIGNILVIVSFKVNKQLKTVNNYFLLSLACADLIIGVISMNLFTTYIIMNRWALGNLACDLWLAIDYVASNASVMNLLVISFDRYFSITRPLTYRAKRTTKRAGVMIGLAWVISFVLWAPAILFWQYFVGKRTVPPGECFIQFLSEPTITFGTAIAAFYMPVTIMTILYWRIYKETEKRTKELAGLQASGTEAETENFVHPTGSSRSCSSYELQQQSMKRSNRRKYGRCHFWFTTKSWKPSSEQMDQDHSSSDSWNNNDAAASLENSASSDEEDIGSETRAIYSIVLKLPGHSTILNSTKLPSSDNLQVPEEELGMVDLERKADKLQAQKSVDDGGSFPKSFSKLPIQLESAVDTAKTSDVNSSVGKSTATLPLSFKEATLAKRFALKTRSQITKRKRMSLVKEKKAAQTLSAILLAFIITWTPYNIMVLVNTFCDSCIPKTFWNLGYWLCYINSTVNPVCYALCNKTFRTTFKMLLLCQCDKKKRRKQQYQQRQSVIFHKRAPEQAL

SMILES	M2 FDSS PA [1]	M3 FDSS PA [2]	EC50 [2]	M5 FDSS PA [3]	EC50 [3]	Emax [1]	Emax [2]	Emax [3]	EC50 ([1]; agonist mode, geometric mean if tested more than once, read-out: M2 FDSS EC50)
CC(C)(O)CCOc1ccccc1C1CCN([C@@H]2CCC3(C2)CN(C(=O)C2(F)CC2)C3)CC1 (single isomer, unassigned) [Example 7BB, (R)-(1-fluorocyclopropyl)(6-(4-(2-(3-hydroxy-3-methylbutoxy)phenyl)piperidin-1-yl)-2-azaspiro[3.4]octan-2-yl)methanone or (S)-(1-fluorocyclopropyl)(6-(4-(2-(3-hydroxy-3-methylbutoxy)phenyl)piperidin-1-yl)-2-azaspiro[3.4]octan-2-yl)methanone]	0%	0%	> 25 µM	0%	> 25 µM				
O=C(N1CC2(CC[C@@H](N3CCC(c4ccccc4OCCC(F)(F)F)CC3)C2)C1)C1(F)CC1 (single isomer, unassigned) [Example 7AA, (R)-(1-fluorocyclopropyl)(6-(4-(2-(3,3,3-trifluoropropoxy)phenyl)piperidin-1-yl)-2-azaspiro[3.4]octan-2-yl)methanone or (S)-(1-fluorocyclopropyl)(6-(4-(2-(3,3,3-trifluoropropoxy)phenyl)piperidin-1-yl)-2-azaspiro[3.4]octan-2-yl)methanone]	0%	0%	> 25 µM	0%	> 25 µM				
O=C(N1CC2(CC[C@@H](N3CCC(c4ccccc4OCCO)CC3)C2)C1)C1(F)CC1 (single isomer, unassigned) [Example 7N, (R)-(1-fluorocyclopropyl)(6-(4-(2-(2-hydroxyethoxy)phenyl)piperidin-1-yl)-2-azaspiro[3.4]octan-2-yl)methanone or (S)-(1-fluorocyclopropyl)(6-(4-(2-(2-hydroxyethoxy)phenyl)piperidin-1-yl)-2-azaspiro[3.4]octan-2-yl)methanone]	0%	0%	> 25 µM	0%	> 25 µM				
COc1ccccc1C1CCN([C@H]2CCC3(C2)CN(c2ncco2)C3)CC1 (single isomer, unassigned) [Example 10I, S)-2-(6-(4-(2-methoxyphenyl)piperidin-1-yl)-2-azaspiro[3.4]octan-2-yl)oxazole or (R)-2-(6-(4-(2-methoxyphenyl)piperidin-1-yl)-2-azaspiro[3.4]octan-2-yl)oxazole]	0%	0%	> 25 µM	0%	> 25 µM				
CCOc1ccccc1C1CCN([C@@H]2CCC3(C2)CN(C(=O)C2(F)CC2)C3)CC1 (single isomer, unassigned) [Example 7S, (R)-(6-(4-(2-ethoxyphenyl)piperidin-1-yl)-2-azaspiro[3.4]octan-2-yl)(1-fluorocyclopropyl)methanone or (S)-(6-(4-(2-ethoxyphenyl)piperidin-1-yl)-2-azaspiro[3.4]octan-2-yl)(1-fluorocyclopropyl)methanone]	0%	0%	> 25 µM	0%	> 25 µM				

Further lines, results first:

M2 FDSS PA [1]	M3 FDSS PA [2]	EC50 [2]	M5 FDSS PA [3]	EC50 [3]	Emax [1]	Emax [2]	Emax [3]	EC50 ([1]; agonist mode, geometric mean if tested more than once, read-out: M2 FDSS EC50)	SMILES
		> 25 µM		> 25 µM	0%	0%	0%		Fc1ccc(OC2CC3(COC3)C2)c(C2CCN([C@@H]3CCC4(C3)CN(c3nnco3)C4)CC2)c1 [Example 1B, (R)-2-(6-(4-(2-((2-oxaspiro[3.3]heptan-6-yl)oxy)-5-fluorophenyl)piperidin-1-yl)-2-azaspiro[3.4]octan-2-yl)-1,3,4-oxadiazole]
		> 25 µM		> 25 µM	0%	0%	0%		COc1ccccc1C1CCN([C@@H]2CCC3(C2)CN(c2cncc(C)n2)C3)CC1 [Example 5G, (R)-6-(4-(2-methoxyphenyl)piperidin-1-yl)-2-(6-methylpyrazin-2-yl)-2-azaspiro[3.4]octane]
		> 25 µM		13.4 µM	16%	0%	8%		COc1ccc(Cl)cc1C1CCN([C@@H]2CCC3(C2)CN(c2ccnnc2)C3)CC1 [Example 5P, (R)-6-(4-(5-chloro-2-methoxyphenyl)piperidin-1-yl)-2-(pyridazin-4-yl)-2-azaspiro[3.4]octane]
11%	0%	> 25 µM	0%	> 25 µM				0.506 µM	Fc1ccc(C2CCOCC2)c(C2CCN([C@@H]3CCC4(C3)CN(c3cncnc3)C4)CC2)c1 (single isomer, unassigned) [Example 10D, (R)-6-(4-(5-fluoro-2-(tetrahydro-2H-pyran-4-yl)phenyl)piperidin-1-yl)-2-(pyrimidin-5-yl)-2-azaspiro[3.4]octane or (S)-6-(4-(5-fluoro-2-(tetrahydro-2H-pyran-4-yl)phenyl)piperidin-1-yl)-2-(pyrimidin-5-yl)-2-azaspiro[3.4]octane]

Reference: US12122761B2, “2-azaspiro[3.4]octane derivatives as M4 agonists” (NOVARTIS AG, priority 2019, dated 2024)
